Measured values from patent US20250121068A1, “BIFUNCTIONAL MOLECULES AS PROTEASOME STIMULATORS FOR IMPROVED TARGETED PROTEIN DEGRADATION, AND THEIR USES AS TARGETED BOOSTING DEGRADERS (TARBODS)” (BOOSTER THERAPEUTICS GMBH, priority 2021, published 2025).

Tests used:
a-synuclein = biological target: T1, a-synuclein (Homo sapiens, UniProt P37840); assay: a-synuclein degradation in HEK293 cells (western blot); type: cell-based; conditions: a-synuclein transfection 48 h, dosed 3 h at 25 μM with 50 μM cycloheximide, compared to DMSO and MO
T1 construct: expressed in transfected cells; host or cells: HEK293
Method: After a-synuclein transfection for 48 h, the compounds were dosed for 3 h at 25 μM together with 50 μM cycloheximide, and the total a-synuclein was determined using western blot. DMSO samples were used as control (dashed line).
FIGS. 2 to 4 show the results of the functional assay for the compounds of group I, FIG. 2 based on proteasome stimulation in vitro. The biochemical assay was performed with a purified human 20S proteasome. The compounds were incubated with 20S proteasomes for 1 h, and the proteasome activity was measured with a TAS-1 probe. DMSO samples were used as control. […] The inventive compounds are better stimulators than the activator alone (MO), especially when they have a longer linker, e.g. (PEG)4-5.

tau = tau degradation in HEK293 cells (western blot); type: cell-based; conditions: tau transfection 48 h, dosed 16 h at 25 μM with 30 μM cycloheximide, DMSO control
Method: After tau transfection for 48 h, the compounds were dosed for 16 h at 25 μM together with 30 μM cycloheximide, and total tau was determined (western blot). DMSO samples were used as control (dashed line).
The biochemical assay was performed with a purified human 20S proteasome. The compounds were incubated with 20S proteasomes for 1 h, and the proteasome activity was measured with a TAS-1 probe. DMSO samples were used as control (dashed line). The inventive compounds are better stimulators than the activator alone (MO), especially when they have a longer linker, e.g., (PEG)4-5. […] For proteasome activity in HEK293 cells, the compounds were dosed for 1.5 h, and the proteasome activity measured with Me4BodipyFLAhx3L3VS activity probe. DMSO samples were used as control (dashed line). […] Compounds were dosed for 24 h, and the viability measured with CellTiter-Glo. DMSO samples were used as control (dashed line). […] After tau transfection for 48 h, the compounds were dosed for 16 h at 25 μM together with 30 μM cycloheximide, and total tau was determined (western blot). DMSO samples were used as control (dashed line).

| SMILES | a-synuclein degradation (total a-synuclein) (a-synuclein) | tau degradation (total tau) (tau) |
| --- | --- | --- |
| CNc1ccc(-c2nc3ccc(OCCOCCOCCOCCNC(=O)c4ccc(COC(Cn5ccnc5)c5ccc(Cl)cc5Cl)cc4)cc3s2)cc1 (stereo not drawn) [DS003, 4-((1-(2,4-dichlorophenyl)-2-(1H-imidazol-1-yl)ethoxy)methyl)-N-(2-(2-(2-(2-((2-(4-(methylamino)phenyl)benzo[d]thiazol-6-yl)oxy)ethoxy)ethoxy)ethoxy)ethyl)benzamide] | clear improvement in degrading a-synuclein | – |
| CNc1ccc(-c2nc3ccc(OCCOCCNC(=O)c4ccc(COC(Cn5ccnc5)c5ccc(Cl)cc5Cl)cc4)cc3s2)cc1 (stereo not drawn) [DS001, 4-((1-(2,4-dichlorophenyl)-2-(1H-imidazol-1-yl)ethoxy)methyl)-N-(2-(2-((2-(4-(methylamino)phenyl)benzo[d]thiazol-6-yl)oxy)ethoxy)ethyl)benzamide] | clear improvement in degrading a-synuclein | – |
| O=C(CCc1ccc2c(c1)[nH]c1ccncc12)NCCOCCNC(=O)c1ccc(COC(Cn2ccnc2)c2ccc(Cl)cc2Cl)cc1 (stereo not drawn) [DT-001, N-(2-(2-(3-(5H-pyrido[4,3-b]indol-7-yl)propanamido)ethoxy)ethyl)-4-((1-(2,4-dichlorophenyl)-2-(1H-imidazol-1-yl)ethoxy)methyl)benzamide] | – | clear tau degradation improvement |
